We go through eleven compounds from patent US7964531B2, “3-phenoxy-4-pyridazinol derivatives and herbicidal composition containing the same” (Mitsui Chemicals Agro, Inc., priority 2001, dated 2011).

Type in all cases: in vivo
Holding throughout (conditions): wettable powder applied 3 days after transplanting, judged after 25 days

Series [1] has as its system transplanted paddy-field rice. Nature of the series: Test Example 1: crop injury against transplanted paddy-field rice. In short, it runs like this:
(§1)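 Herbicidal effect and rice injury were graded on a six-step growth-inhibition scale (0: 0–10% to 5: 91–100%) at 25 days after pot application of water-diluted wettable powder, given 3 days post-transplant under flooded greenhouse conditions.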

In series [2] the test system is barnyardgrass (Echinochloa oryzicola Vasing.). Nature of the series: Test Example 1: herbicidal effects, paddy-field pot test. In short, it runs like this:
as §1

Another series has as its system Cyperus serotinus. Described as above. In short, it runs like this: as §1
The subject of another series is Scirpus joncoides. Described as above. In short, it runs like this:
as §1

In series [3] the test system is annual broad-leaved weeds (Lindernia spp., Rotala indica). The description is as above. In short, it runs like this:
as §1

Regarding `Oc1cc(Cl)nnc1Oc1c(C2CC2)ccc2ccoc12` [Example 311], the “Crop injury against transplanted rice” value in series [1] (chemical dosage 10 g/a) and in series [1] (chemical dosage 20 g/a) was 0 (Growth inhibition rate; 0 to 10%) each time. The “Herbicidal effects Barnyard grass” value in series [2] (chemical dosage 10 g/a) is given as 1 (Growth inhibition rate; 11 to 30%); in series [2] (chemical dosage 20 g/a), 3 (Growth inhibition rate; 51 to 70%). Also, the “Herbicidal effects Cyperus serotinus” value is given as 4 (Growth inhibition rate; 71 to 90%) in the series with Cyperus serotinus (chemical dosage 10 g/a) and 5 (Growth inhibition rate; 91 to 100%) in the series on Cyperus serotinus (chemical dosage 20 g/a). The “Herbicidal effects Scirpus joncoides” value with Scirpus joncoides (chemical dosage 10 g/a) was 4 (Growth inhibition rate; 71 to 90%); with Scirpus joncoides (chemical dosage 20 g/a), 5 (Growth inhibition rate; 91 to 100%). Besides, the “Herbicidal effects Broad leaf” value in series [3] (chemical dosage 10 g/a) and in series [3] (chemical dosage 20 g/a) was 5 (Growth inhibition rate; 91 to 100%) throughout.
Regarding `Cc1ccc2c(c1Oc1nnc(Cl)cc1O)OCC2` [Example 308], the “Crop injury against transplanted rice” value in series [1] (chemical dosage 10 g/a) and in series [1] (chemical dosage 20 g/a) was 0 (Growth inhibition rate; 0 to 10%) each time. Further, the “Herbicidal effects Barnyard grass” value is 2 (Growth inhibition rate; 31 to 50%) in series [2] (chemical dosage 10 g/a) and 4 (Growth inhibition rate; 71 to 90%) in series [2] (chemical dosage 20 g/a). Further, the “Herbicidal effects Cyperus serotinus” value in the series on Cyperus serotinus (chemical dosage 10 g/a) and in the series with Cyperus serotinus (chemical dosage 20 g/a) was 5 (Growth inhibition rate; 91 to 100%) in each case. Moreover, the “Herbicidal effects Scirpus joncoides” value with Scirpus joncoides (chemical dosage 10 g/a) is given as 4 (Growth inhibition rate; 71 to 90%); in the series with Scirpus joncoides (chemical dosage 20 g/a), 5 (Growth inhibition rate; 91 to 100%). Also, the “Herbicidal effects Broad leaf” value in series [3] (chemical dosage 10 g/a) and in series [3] (chemical dosage 20 g/a) was 5 (Growth inhibition rate; 91 to 100%) each time.
For the compound `Cc1ccc(Br)c(Oc2nnc(Cl)cc2O)c1C` [Example 294], the “Crop injury against transplanted rice” value in series [1] (chemical dosage 10 g/a) and in series [1] (chemical dosage 20 g/a) was 0 (Growth inhibition rate; 0 to 10%) throughout. Moreover, the “Herbicidal effects Barnyard grass” value in series [2] (chemical dosage 10 g/a) is on record as 1 (Growth inhibition rate; 11 to 30%); in series [2] (chemical dosage 20 g/a), 2 (Growth inhibition rate; 31 to 50%). For the same compound, the “Herbicidal effects Cyperus serotinus” value with Cyperus serotinus (chemical dosage 10 g/a) and in the series with Cyperus serotinus (chemical dosage 20 g/a) was 5 (Growth inhibition rate; 91 to 100%) in each case. In addition, the “Herbicidal effects Scirpus joncoides” value in the series with Scirpus joncoides (chemical dosage 10 g/a) and with Scirpus joncoides (chemical dosage 20 g/a) was 5 (Growth inhibition rate; 91 to 100%) in each case. Further, the “Herbicidal effects Broad leaf” value in series [3] (chemical dosage 10 g/a) and in series [3] (chemical dosage 20 g/a) was 5 (Growth inhibition rate; 91 to 100%) each time.
`Oc1cc(Cl)nnc1Oc1cccc2occc12` [Example 183]: the “Crop injury against transplanted rice” value in series [1] (chemical dosage 10 g/a) and in series [1] (chemical dosage 20 g/a) was 0 (Growth inhibition rate; 0 to 10%) in each case. For the same compound, the “Herbicidal effects Barnyard grass” value in series [2] (chemical dosage 10 g/a) is given as 1 (Growth inhibition rate; 11 to 30%); in series [2] (chemical dosage 20 g/a), 2 (Growth inhibition rate; 31 to 50%). The “Herbicidal effects Cyperus serotinus” value in the series with Cyperus serotinus (chemical dosage 10 g/a) and with Cyperus serotinus (chemical dosage 20 g/a) was 5 (Growth inhibition rate; 91 to 100%) in each case. Besides, the “Herbicidal effects Scirpus joncoides” value with Scirpus joncoides (chemical dosage 10 g/a) and in the series on Scirpus joncoides (chemical dosage 20 g/a) was 5 (Growth inhibition rate; 91 to 100%) each time. In addition, the “Herbicidal effects Broad leaf” value in series [3] (chemical dosage 10 g/a) and in series [3] (chemical dosage 20 g/a) was 5 (Growth inhibition rate; 91 to 100%) in each case.
In the case of `CCCc1cccc(F)c1Oc1nnc(Cl)cc1O` [Example 234], the “Crop injury against transplanted rice” value in series [1] (chemical dosage 12.5 g/a) and in series [1] (chemical dosage 25 g/a) was 0 (Growth inhibition rate; 0 to 10%) throughout. The “Herbicidal effects Barnyard grass” value in series [2] (chemical dosage 12.5 g/a) and in series [2] (chemical dosage 25 g/a) was 0 (Growth inhibition rate; 0 to 10%) in each case. Further, the “Herbicidal effects Cyperus serotinus” value in the series on Cyperus serotinus (chemical dosage 12.5 g/a) and in the series with Cyperus serotinus (chemical dosage 25 g/a) was 5 (Growth inhibition rate; 91 to 100%) each time. The “Herbicidal effects Scirpus joncoides” value is listed as 3 (Growth inhibition rate; 51 to 70%) in the series with Scirpus joncoides (chemical dosage 12.5 g/a) and 4 (Growth inhibition rate; 71 to 90%) with Scirpus joncoides (chemical dosage 25 g/a). The “Herbicidal effects Broad leaf” value in series [3] (chemical dosage 12.5 g/a) and in series [3] (chemical dosage 25 g/a) was 5 (Growth inhibition rate; 91 to 100%) throughout.
Turning to `COc1cccc(C)c1Oc1nnc(Cl)cc1O` [Example 267], the “Crop injury against transplanted rice” value in series [1] (chemical dosage 10 g/a) and in series [1] (chemical dosage 20 g/a) was 0 (Growth inhibition rate; 0 to 10%) throughout. In addition, the entries for the “Herbicidal effects Barnyard grass” value in series [2] (chemical dosage 10 g/a) and in series [2] (chemical dosage 20 g/a) were 1 (Growth inhibition rate; 11 to 30%) and 2 (Growth inhibition rate; 31 to 50%), respectively. In addition, the “Herbicidal effects Cyperus serotinus” value in the series on Cyperus serotinus (chemical dosage 10 g/a) and in the series with Cyperus serotinus (chemical dosage 20 g/a) was 5 (Growth inhibition rate; 91 to 100%) throughout. Also, the “Herbicidal effects Scirpus joncoides” value was 4 (Growth inhibition rate; 71 to 90%) in the series on Scirpus joncoides (chemical dosage 10 g/a) and 5 (Growth inhibition rate; 91 to 100%) in the series on Scirpus joncoides (chemical dosage 20 g/a). Further, the “Herbicidal effects Broad leaf” value in series [3] (chemical dosage 10 g/a) and in series [3] (chemical dosage 20 g/a) was 5 (Growth inhibition rate; 91 to 100%) in each case.
In the case of `Oc1cc(Cl)nnc1Oc1cccc2c1CCCC2` [Example 179], the “Crop injury against transplanted rice” value in series [1] (chemical dosage 10 g/a) and in series [1] (chemical dosage 20 g/a) was 0 (Growth inhibition rate; 0 to 10%) in each case. For the same compound, the “Herbicidal effects Barnyard grass” value in series [2] (chemical dosage 10 g/a) is 0 (Growth inhibition rate; 0 to 10%); in series [2] (chemical dosage 20 g/a) it was 1 (Growth inhibition rate; 11 to 30%). The “Herbicidal effects Cyperus serotinus” value in the series with Cyperus serotinus (chemical dosage 10 g/a) and in the series with Cyperus serotinus (chemical dosage 20 g/a) was 5 (Growth inhibition rate; 91 to 100%) each time. In addition, the “Herbicidal effects Scirpus joncoides” value in the series on Scirpus joncoides (chemical dosage 10 g/a) is given as 3 (Growth inhibition rate; 51 to 70%); with Scirpus joncoides (chemical dosage 20 g/a), 4 (Growth inhibition rate; 71 to 90%). The “Herbicidal effects Broad leaf” value in series [3] (chemical dosage 10 g/a) and in series [3] (chemical dosage 20 g/a) was 4 (Growth inhibition rate; 71 to 90%) in each case.
As to `Cc1ccccc1Oc1nnc(Cl)cc1OS(C)(=O)=O` [Example 356], the “Crop injury against transplanted rice” value in series [1] (chemical dosage 10 g/a) and in series [1] (chemical dosage 20 g/a) was 0 (Growth inhibition rate; 0 to 10%) each time. The “Herbicidal effects Barnyard grass” value in series [2] (chemical dosage 10 g/a) was 2 (Growth inhibition rate; 31 to 50%); in series [2] (chemical dosage 20 g/a) it was 3 (Growth inhibition rate; 51 to 70%). In addition, the “Herbicidal effects Cyperus serotinus” value in the series with Cyperus serotinus (chemical dosage 10 g/a) and with Cyperus serotinus (chemical dosage 20 g/a) was 5 (Growth inhibition rate; 91 to 100%) throughout. Also, the “Herbicidal effects Scirpus joncoides” value in the series with Scirpus joncoides (chemical dosage 10 g/a) is recorded as 3 (Growth inhibition rate; 51 to 70%); in the series with Scirpus joncoides (chemical dosage 20 g/a) it was 5 (Growth inhibition rate; 91 to 100%). Besides, the “Herbicidal effects Broad leaf” value is 4 (Growth inhibition rate; 71 to 90%) in series [3] (chemical dosage 10 g/a) and 5 (Growth inhibition rate; 91 to 100%) in series [3] (chemical dosage 20 g/a).
As for `Cc1ccccc1Oc1nnc(Br)cc1O` [Example 34], the “Crop injury against transplanted rice” value in series [1] (chemical dosage 10 g/a) and in series [1] (chemical dosage 20 g/a) was 0 (Growth inhibition rate; 0 to 10%) in each case. The “Herbicidal effects Barnyard grass” value was 1 (Growth inhibition rate; 11 to 30%) in series [2] (chemical dosage 10 g/a) and 2 (Growth inhibition rate; 31 to 50%) in series [2] (chemical dosage 20 g/a). The “Herbicidal effects Cyperus serotinus” value in the series with Cyperus serotinus (chemical dosage 10 g/a) and in the series on Cyperus serotinus (chemical dosage 20 g/a) was 5 (Growth inhibition rate; 91 to 100%) each time. In addition, the “Herbicidal effects Scirpus joncoides” value in the series on Scirpus joncoides (chemical dosage 10 g/a) is 2 (Growth inhibition rate; 31 to 50%); with Scirpus joncoides (chemical dosage 20 g/a), 4 (Growth inhibition rate; 71 to 90%). The “Herbicidal effects Broad leaf” value in series [3] (chemical dosage 10 g/a) was 2 (Growth inhibition rate; 31 to 50%); in series [3] (chemical dosage 20 g/a), 4 (Growth inhibition rate; 71 to 90%).
Regarding `Oc1cc(Cl)nnc1Oc1cccc(F)c1F` [Example 154], the “Crop injury against transplanted rice” value in series [1] (chemical dosage 10 g/a) and in series [1] (chemical dosage 20 g/a) was 0 (Growth inhibition rate; 0 to 10%) in each case. The figures for the “Herbicidal effects Barnyard grass” value in series [2] (chemical dosage 10 g/a) and in series [2] (chemical dosage 20 g/a) were 1 (Growth inhibition rate; 11 to 30%) and 2 (Growth inhibition rate; 31 to 50%), respectively. For the same compound, the “Herbicidal effects Cyperus serotinus” value with Cyperus serotinus (chemical dosage 10 g/a) and in the series with Cyperus serotinus (chemical dosage 20 g/a) was 5 (Growth inhibition rate; 91 to 100%) throughout. Moreover, the entries for the “Herbicidal effects Scirpus joncoides” value with Scirpus joncoides (chemical dosage 10 g/a) and in the series with Scirpus joncoides (chemical dosage 20 g/a) were 3 (Growth inhibition rate; 51 to 70%) and 5 (Growth inhibition rate; 91 to 100%), respectively. Besides, the “Herbicidal effects Broad leaf” value in series [3] (chemical dosage 10 g/a) and in series [3] (chemical dosage 20 g/a) was 5 (Growth inhibition rate; 91 to 100%) in each case.
For `CCCS(=O)(=O)Oc1cc(Cl)nnc1Oc1ccccc1C` [Example 359], the “Crop injury against transplanted rice” value in series [1] (chemical dosage 10 g/a) and in series [1] (chemical dosage 20 g/a) was 0 (Growth inhibition rate; 0 to 10%) throughout. The “Herbicidal effects Barnyard grass” value in series [2] (chemical dosage 10 g/a) is on record as 4 (Growth inhibition rate; 71 to 90%); in series [2] (chemical dosage 20 g/a), 5 (Growth inhibition rate; 91 to 100%). For the same compound, the “Herbicidal effects Cyperus serotinus” value in the series with Cyperus serotinus (chemical dosage 10 g/a) and in the series with Cyperus serotinus (chemical dosage 20 g/a) was 5 (Growth inhibition rate; 91 to 100%) throughout. Also, the “Herbicidal effects Scirpus joncoides” value in the series with Scirpus joncoides (chemical dosage 10 g/a) was 3 (Growth inhibition rate; 51 to 70%); in the series on Scirpus joncoides (chemical dosage 20 g/a), 4 (Growth inhibition rate; 71 to 90%). The “Herbicidal effects Broad leaf” value in series [3] (chemical dosage 10 g/a) is reported as 3 (Growth inhibition rate; 51 to 70%); in series [3] (chemical dosage 20 g/a), 5 (Growth inhibition rate; 91 to 100%).
